# Measurements published in patent US20230192765A1, “PEPTIDES TARGETING SHP2 AND USES THEREOF” (UNIVERSITÀ DEGLI STUDI DI ROMA "TOR VERGATA", priority 2020, published 2023).
# Read-outs that look alike come from different tables or passages of the source. Primed or numbered codes have the meaning given here. [ ]: non-standard residue; d: D form. 5,6‑carboxyfluorescein″ = CF is 5,6 carboxyfluorescein; pY = N[C@@H](Cc1ccc(OP(=O)(O)O)cc1)C(=O)O
# Experiments:
# [1] = type: in vitro ADME; settings: human serum, up to 90 minutes, 37° C.
# Experimental: (§1) The peptides were dissolved in DMSO (C=5 mg/mL). In eppendorf tubes, 1 mL of HEPES buffer (C = 25 mM, pH = 7.6) was temperature equilibrated at 37° C. before adding 250 µL of human serum and 20 µL of peptide solution; the reaction was followed for 90 minutes. At fixed intervals, 100 µL of the solution were withdrawn and added to 200 µL of absolute ethanol. These samples were kept on ice for 15 minutes, then centrifuged at 13,000 rpm for 5 minutes; the supernatant solutions were analyzed by HPLC and HPLC-MS with 20-60% B gradient in 20 minutes to follow the reaction. In parallel, samples containing peptide, buffer and ethanol only were also analyzed, too. A degradation resistance test was also conducted in DMEM (Dulbecco’s Modified Eagle Medium). The experimental conditions are similar to those described above; the reaction was followed for 72 hours. The enzymatic degradation resistance tests were followed by HPLC using a 5-50% B gradient in 20 minutes.
# [2] = test system: zebrafish embryos injected with Shp2a-WT mRNA; assay: In vivo zebrafish experiments, Shp2a-WT embryos
# Experimental: (§2) One cell stage zebrafish embryos were injected with a mixture of 120 ng/µl of mRNA encoding either GFP-2A-Shp2-D61G or GFP-2A-Shp2-wt (as a control), with or without OP, at 0.3 µM, 3 µM and 5 µM concentration. Embryos were selected based on proper GFP expression and imaged at 11 hours post fertilization (hpf) in their lateral position using the Leica M165 FC stereomicroscope. Images were analyzed using ImageJ [Schneider 2012], by measuring the ratio of the major and minor axis from a minimum of 31 embryos. Statistical analysis was performed in GraphPad Prism, using the analysis of variance (ANOVA) complemented by Tukey’s honest significant difference test (Tukey’s HSD). To measure the survival of injected embryos, a minimum of 48 embryos per group were grown up to 4 days post fertilization (dpf) and counted at 1 dpf and 4 dpf. Survival curves were plotted using GraphPad Prism, and the differences between samples were determined using the Log-rank (Mantel-Cox) test.
# [3] = test system: zebrafish embryos injected with Shp2a-D61G mRNA; assay: In vivo zebrafish rescue experiments, Shp2a-D61G embryos
# Experimental: as §2
# [4] = Peptide stability in DMEM; type: in vitro ADME; settings: three days
# Experimental: as §1
# [5] = test system: pathogenic variants of SHP2; settings: literature [Sun 2018; LaRochelle 2018]; cited from earlier work
# NIH3T3 cells [6] = assay: Cell uptake experiments (FACS); type: cell-based; settings: TAT linked to the C-terminus
# Experimental: Cell uptake experiments were performed on NIH3T3 cells. About 200,000 cells were seeded on six-well plates and cultured in Dulbecco’s modified Eagle’s medium supplemented with 10% heat-inactivated fetal bovine serum (Gibco) and 1 % penicillin-streptomycin, at 37° C. with 5% CO2.
# Two different strategies were followed. In a first set of experiments, the fluorescent peptide has been incubated with the cell-penetrating peptide (CPP) Pep-1. A Pep-1 stock solution was prepared by dissolving the peptide in ultrapure water. The fluorescent peptide was diluted in PBS from the DMSO stock solution. The peptides were mixed and incubated for 30 minutes at room temperature in a final volume of 400 µl. The conditions for cell delivery were optimized by investigating different cargo to CPP ratios. The mixture was then added to the cells, washed with PBS, together with 600 µl of serum-free medium (volumes for one well are reported). After one hour, 10% of fetal bovine serum (FBS) was added.
# (§3) Cells were incubated for different times and then washed, collected and stained with SYTOX blue (1 mM, Invitrogen™) to identify the viable population and the green fluorescence of CFP9W5 was recordered to measure peptide uptake. Data were analysed with Kaluza Analysis Software (Beckman Coulter).
# A second set of measurement was carried out using the TAT-conjugated peptide analog. […]
# NIH3T3 cells [7] = assay: Peptide toxicity in the cell uptake experiments (Sytox); type: cell-based; settings: all the concentrations tested
# Experimental: Cell viability in the FACS experiment was determined by using Sytox fluorescence.
# as §3
compound,measurement,setting,value
"CC[C@H](C)[C@H](NC(=O)[C@H](Cc1ccc(C(F)(F)P(=O)(O)O)cc1)NC(=O)[C@H](CC(N)=O)NC(=O)[C@H](CC(C)C)NC(=O)CNC(C)=O)C(=O)N[C@@H](CC(=O)O)C(=O)N[C@@H](CC(C)C)C(=O)N[C@@H](CC(=O)O)C(=O)N[C@@H](Cc1c[nH]c2ccccc12)C(N)=O [Peptide P9ND0W5, GLN-F2Pmp-IDLDW]",degradation (HPLC),[1],No significant degradation
same,lethality of embryos,[2]; co-injection of 3 µM,not affected
same,embryo shape at 11 hpf,[2]; co-injection with 3 µM peptide,no impact on their shape
same,rescue of the gastrulation phenotype,[3]; 5 µM peptide,significant
same,survival of embryos,"[3]; co-injection 0.3 µM, 3 µM and 5 µM, counted 1 dpf and 4 dpf",significant and dose dependent improvement
same,degradation (HPLC),[4],No significant degradation
CC1(N)CCN(c2cnc(-c3cccc(Cl)c3Cl)c(N)n2)CC1 [SHP099],activity in pathogenic variants of SHP2,[5],significantly impaired activity
"CF-GLN-pY-IDLDW-GRKKRRQRRR ({5,6‑carboxyfluorescein″}-GLN[pY]IDLDWGRKKRRQRRR-NH2) [CF-P9W5-TAT]","cell uptake, covalent strategy",NIH3T3 cells [6],efficiently obtained
same,cell killing,NIH3T3 cells [7],did not cause any cell killing
